Source: US10472366B2, “Glucuronide prodrugs of tofacitinib” (THERAVANCE BIOPHARMA R&D IP, LLC, priority 2017, dated 2019)
“And” between values parts separate entries of the source, which are not always exact repeats. Equal values may be shown once.

Tests used:
[1] = tested on: β-glucuronidase in rat colon feces; assay: Rat colon fecal homogenate stability assay; format: in vitro ADME; conditions: in vitro half-life in rat fecal supernatant-homogenate, anaerobic, 10 μM substrate, individual values when assay repeated; for half-life at 10 μM: male, rat, rat colon fecal supernatant-homogenate, read-out: T½
Text: The compounds of the present invention contain a glucuronide prodrug moiety that is expected to be cleaved by β-glucuronidase enzyme. The objective of this assay was to determine the half-life for compounds of the present invention in the presence of β-glucuronidase in rat colon feces.
Following sacrifice of a naïve male rat (˜300 g) by cardiac puncture exsanguination, the colon was ligated and removed to an anaerobic chamber (AS-580, Anaerobe Systems). The fecal content was removed within the chamber and was diluted 1:10 with phosphate buffer (1 gram fecal content to 9 mL phosphate buffer) and the resulting mixture was homogenized using a handheld Omni Tissue Master. The fecal homogenate was centrifuged at 2000 g for 10 min to remove bulk material and the supernatant was removed and used for the incubations.
DMSO stock solutions (10 mM) of the test compounds and sulfasalazine (control) were prepared. Sulfasalazine was used as a positive control to confirm viability of the fecal supernatant-homogenate (see, e.g., Azad Khan et al., Clinical Science (1983) 64, 349-354). If the in vitro half-life (T½) for sulfasalazine in the fecal sample was less than 30 min, the fecal sample was deemed to be viable and in true anaerobic conditions. However, if the T½ for sulfasalazine was greater than 30 min, the fecal sample was typically contaminated with oxygen and was not viable. The final substrate concentration of each assay was 10 μM. Reactions were started by adding a 5 μL aliquot of diluted test compound stock solution into 300 μL of rat fecal supernatant-homogenate. At 0, 15, 30, 60, 90, and 120 min post reaction initiation, a 50 μL aliquot was removed and added to a mixture of 200 μL of acetonitrile with 3% formic acid and an internal standard. All samples were centrifuged at 2000 g for 10 min after which 50 μL of supernatant was diluted into 150 μL of water for analysis on an LC-MS system. In vitro half-lives (T½) for the test compounds were calculated as follows: T½=0.693/elimination rate constant. When the assay was performed more than once, individual values are reported.

[2] = tested on: oxazolone-induced colitis; assay: Mouse model of oxazolone-induced colitis; format: in vivo; conditions: PO
Method: Oxazolone-induced colitis is an experimental model that has a histological resemblance to human ulcerative colitis (Heller et al. […], 2002, 17, 629-638). Adult BALB/C mice (25-28 g, 9-12 weeks of age) from BioNeeds (India) were used in the assay. On Day 1, animals were lightly anesthetized with isoflurane and the hairs between the shoulder were carefully removed. Oxazolone (6 mg/mouse, 100 μL, 4:1 acetone:olive oil formulation) or vehicle solution was slowly applied to the bare skin patch to induce skin sensitization. Six days after skin sensitization, the mice were fasted overnight and then anesthetized with ketamine and xylazine administered intraperitoneally. A 1 mL syringe filled with oxazolone solution (0.5 mg/50 μL/mouse in 50% ethanol) or 50% ethanol/saline was inserted carefully ˜3.8 cm into the colon of the mouse. Animals were kept in a head down position and oxazolone or vehicle solution was rectally instilled very slowly over a minute. The mice were held vertically (head down) for another minute to ensure that the entire oxazolone or vehicle solution remained inside the colon. Test compound treatment (PO, BID or TID) or vehicle was initiated the evening prior to the oxazolone intrarectal (IR) challenge. On both first (Day 1) and second (Day 2) days post-oxazolone IR challenge, the Disease Activity Index (DAI) was assessed by treatment-blinded experimenters for each mouse, according to the following subscores: stool consistency (0, normal; 2, loose; 4, diarrhea), gross bleeding and hemoccult test (0, absence; 2, blood tinged; 4, overt blood presence), and weight loss (0, none; 1, 1%-5%; 2, 6^%-10%; 3, 11%-15%; 4, more than 15%); DAI=average of (stool consistency+blood presence+weight loss scores).
An area-under-the-curve (AUC) calculation based on total DAI scores was performed to track disease progression during the course of the experiment. AUC for each experimental group was calculated as: AUC=[(Day 1−Day 0)*Average (DAI Score of Day 0 & Day 1)]+[(Day 2−Day 1)*Average (DAI Score of Day 1 & Day 2)]. A Student's t-test compared the DAI AUC score of the vehicle/vehicle and vehicle/oxazolone groups to evaluate whether disease was induced following oxazolone treatment. This was followed by a one-way analysis of variance (ANOVA), with Dunnett's post hoc test, to compare the DAI AUC score of the vehicle/oxazolone and test compound/oxazolone groups. Statistical significance was defined by an α level set at p<0.05.

[3] = Oral pharmacokinetics in rat assay; format: in vivo; conditions: liberated tofacitinib AUC0-6 h in colon tissue; male Sprague Dawley rats, single PO dose 5 mg/kg of test compound
Method: When cleaved by β-glucuronidase enzyme, the compounds of the present invention release tofacitinib. The object of this assay was to determine tofacitinib exposure (AUC0-6 h) in colon tissue and plasma following oral dosing of compounds of the present invention in rats.
Male Sprague Dawley rats (n=2/time point) received a single PO oral gavage dose (5 mg/kg in 1:20 mixture of 5% DMSO and 1% HPMC) of test compounds. At 0.5, 1, 3, 6 and 24 h post-dosing, rats were sacrificed via cardiac puncture exsanguination, and blood samples were taken and placed into sample tubes (Microtainer, Becton, Dickinson and Company) containing sodium fluoride and then placed on ice. Plasma was obtained by centrifugation (Eppendorf centrifuge, 5804R) for 4 minutes at approximately 12,000 rpm at 4° C.
The colons were removed from exsanguinated rats and the colon contents gently removed. The colons were flushed with saline and patted dry. The colons were then homogenized in 3× the weight of sterile water using a tissue homogenizer (Precellys homogenizer, Bertin Instruments) at approximately 4° C. All samples were stored at −80° C. for later bioanalysis.
The concentration of tofacitinib in each sample was determined as follows: the plasma and colon samples were vortexed, combined with a 50 μL aliquot of rat plasma, extracted with 200 μL of ACN containing an internal standard and quantified against the internal standard by LC-MS. An area-under-the-concentration curve (AUC0-6 h) was calculated for plasma and colon test compound and liberated tofacitinib. A key parameter to assess suitability for localized delivery of tofacitinib to the colon was the tofacitinib colon to plasma AUC ratio.

| Structure (SMILES) | T½ [1] | half-life at 10 μM [1] [min] | also measured |
| --- | --- | --- | --- |
| Cc1ccc(O[C@@H]2O[C@H](C(=O)O)[C@@H](O)[C@H](O)[C@H]2O)c(N(C)C(=O)n2ccc3c(N(C)[C@H]4CN(C(=O)CC#N)CC[C@H]4C)ncnc32)c1 [Compound III-3, (2S,3S,4S,5R,6S)-6-(2-(4-(((3R,4R)-1-(2-Cyanoacetyl)-4-methylpiperidin-3-yl)(methyl)amino)-N-methyl-7H-pyrrolo[2,3-d]pyrimidine-7-carboxamido)-4-methylphenoxy)-3,4,5-trihydroxytetrahydro-2H-pyran-2-carboxylic Acid] | < 15 min | 20 | – |
| C[C@@H]1CCN(C(=O)CC#N)C[C@@H]1N(C)c1ncnc2c1ccn2C(=O)N(C)c1cc(C(F)(F)F)ccc1O[C@@H]1O[C@H](C(=O)O)[C@@H](O)[C@H](O)[C@H]1O [Compound III-4, (2S,3S,4S,5R,6S)-6-(2-(4-(((3R,4R)-1-(2-cyanoacetyl)-4-methylpiperidin-3-yl)(methyl)amino)-N-methyl-7H-pyrrolo[2,3-d]pyrimidine-7-carboxamido)-4-(trifluoromethyl)phenoxy)-3,4,5-trihydroxytetrahydro-2H-pyran-2-carboxylic Acid] | 6 min and < 15 min | – | – |
| C[C@@H]1CCN(C(=O)CC#N)C[C@@H]1N(C)c1ncnc2c1ccn2C(=O)N(C)c1cc(Cl)ccc1O[C@@H]1O[C@H](C(=O)O)[C@@H](O)[C@H](O)[C@H]1O [Compound III-5, (2S,3S,4S,5R,6S)-6-(4-Chloro-2-(4-(((3R,4R)-1-(2-cyanoacetyl)-4-methylpiperidin-3-yl)(methyl)amino)-N-methyl-7H-pyrrolo[2,3-d]pyrimidine-7-carboxamido)phenoxy)-3,4,5-trihydroxytetrahydro-2H-pyran-2-carboxylic Acid] | – | < 15 | – |
| C[C@@H]1CCN(C(=O)CC#N)C[C@@H]1N(C)c1ncnc2c1ccn2C(=O)N(C)Cc1ccccc1O[C@@H]1O[C@H](C(=O)O)[C@@H](O)[C@H](O)[C@H]1O [Compound III-6, (2S,3S,4S,5R,6S)-6-(2-((4-(((3R,4R)-1-(2-Cyanoacetyl)-4-methylpiperidin-3-yl)(methyl)amino)-N-methyl-7H-pyrrolo[2,3-d]pyrimidine-7-carboxamido)methyl)phenoxy)-3,4,5-trihydroxytetrahydro-2H-pyran-2-carboxylic Acid] | <15, <15 min | < 15 | reversal of oxazolone-induced colitis (DAI AUC score) ([2]; 3, 10 and 30 mg/kg, BID, BALB/C mice, vs vehicle/oxazolone, p<0.05): did not produced a statistically significant effect |
| C[C@@H]1CCN(C(=O)CC#N)C[C@@H]1N(C)c1ncnc2c1ccn2C(=O)N(C)Cc1cc([N+](=O)[O-])ccc1O[C@@H]1O[C@H](C(=O)O)[C@@H](O)[C@H](O)[C@H]1O [Compound III-7, (2S,3S,4S,5R,6S)-6-(2-((4-(((3R,4R)-1-(2-Cyanoacetyl)-4-methylpiperidin-3-yl)(methyl)amino)-N-methyl-7H-pyrrolo[2,3-d]pyrimidine-7-carboxamido)methyl)-4-nitrophenoxy)-3,4,5-trihydroxytetrahydro-2H-pyran-2-carboxylic Acid] | <15, <15 min | < 15 | – |
| C[C@@H]1CCN(C(=O)CC#N)C[C@@H]1N(C)c1ncnc2c1ccn2C(=O)N(C)Cc1ccccc1NC(=O)O[C@@H]1O[C@H](C(=O)O)[C@@H](O)[C@H](O)[C@H]1O [Compound IV-1] | 1 min and < 15 min | – | Colon AUC [3]: 5.15 µg·h/g |
| C[C@@H]1CCN(C(=O)CC#N)C[C@@H]1N(C)c1ncnc2c1ccn2C(=O)N(C)CCN(C)C(=O)OCc1ccccc1O[C@@H]1O[C@H](C(=O)O)[C@@H](O)[C@H](O)[C@H]1O [Compound V-1, (2S,3S,4S,5R,6S)-6-(2-((((2-(4-(((3R,4R)-1-(2-Cyanoacetyl)-4-methylpiperidin-3-yl)(methyl)amino)-N-methyl-7H-pyrrolo[2,3-d]pyrimidine-7-carboxamido)ethyl)(methyl)carbamoyl)oxy)methyl)phenoxy)-3,4,5-trihydroxytetrahydro-2H-pyran-2-carboxylic Acid] | <15, <15 min | < 15 | – |
| C[C@@H]1CCN(C(=O)CC#N)C[C@@H]1N(C)c1ncnc2c1ccn2C(=O)N(C)CCN(C)C(=O)OCc1ncccc1O[C@@H]1O[C@H](C(=O)O)[C@@H](O)[C@H](O)[C@H]1O [Compound V-2, (2S,3S,4S,5R,6S)-6-((2-((((2-(4-(((3R,4R)-1-(2-Cyanoacetyl)-4-methylpiperidin-3-yl)(methyl)amino)-N-methyl-7H-pyrrolo[2,3-d]pyrimidine-7-carboxamido)ethyl)(methyl)carbamoyl)oxy)methyl)pyridin-3-yl)oxy)-3,4,5-trihydroxytetrahydro-2H-pyran-2-carboxylic Acid] | – | < 15 | – |
| C[C@@H]1CCN(C(=O)CC#N)C[C@@H]1N(C)c1ncnc2[nH]ccc12 [tofacitinib, 3-((3R,4R)-4-methyl-3-(methyl(7H-pyrrolo[2,3-d]pyrimidin-4-yl)amino)piperidin-1-yl)-3-oxopropanenitrile] | – | – | reversal of oxazolone-induced colitis (DAI AUC score) ([2]; positive control, 60 mg/kg, experiment with Compound 11-6): did produce a statistically significant reversal; reversal of oxazolone-induced colitis (DAI AUC score) ([2]; positive control, 30 and 60 mg/kg, BID, experiment with Compound II-1): statistically significant reversal; reversal of oxazolone-induced colitis (DAI AUC score) ([2]; positive control, 30 and 60 mg/kg, BID, experiment with Compound III-1): did not produce a statistically significant reversal; reversal of oxazolone-induced colitis (DAI AUC score) ([2]; positive control, 30 and 60 mg/kg, BID, experiment with Compound III-2): statistically significant reversal |
